This is an account of results in US20220041591A1, “COMPOUNDS FOR TREATING DIABETES AND/OR RELATED CONDITIONS” (AUCKLAND UNISERVICES LIMITED, priority 2018, published 2022).

Data set [1] is described as follows: Solubility and physical characteristics (1 M NaOH / 1 M HCl titration). As to conditions: for soluble during initial suspension and on titration and pH adjustment: Example 12, titrated down to pH 8-9 with 1 M HCl.
Description: (§1) The compounds were titrated down to pH 8-9 with 1 M HCl and solubility determined immediately, and following overnight and longer term storage.
Light yellow solid. […] Add 1M NaOH.
Data set [2] concerns the target T1, human amylin (hA) (Homo sapiens, UniProt P10997).
T1 construct: Human amylin, also known as islet amylin amyloid polypeptide (IAPP), is a 37-residue peptide hormone
T1 sequence (P10997 34-70 limits assumed): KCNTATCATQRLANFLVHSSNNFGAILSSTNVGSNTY
Kind of data set: Thioflavin-T assay, inhibition of amylin fibril formation. It is filed as biochemical. The method, then:
The ability of the compounds to inhibit human amylin (hA) fibril formation was assessed using the thioflavin-T assay, as described in J. F. Aitken et al., Suppression by polycyclic compounds of the conversion of human amylin into insoluble amylin amyloid., Biochem J., 374 (2003), 779-784. Inhibition was assessed at three hA:compound ratios (1:1, 1:0.1, 1:0.01) for each compound.
The ability of the compounds to inhibit human amylin (hA) fibril formation was assessed using the thioflavin-T assay, as described in J. F. Aitken et al., Suppression by polycyclic compounds of the conversion of human amylin into insoluble amylin amyloid., Biochem J 374 (2003) 779-784. Inhibition was assessed at three hA:compound ratios (1:1, 1:0.1, 1:0.01) for each compound.

For data set [3] the following is noted: for soluble in water: pH 11; for solubility in words at acid pH: pH 1.8; for solubility in words at alkaline pH (1 M NaOH): pH 11.1.
Description: as §1
Light yellow solid. […] Add 1M NaOH.

As to `COc1cccc(NC(=O)CC(=O)c2ccc(O)c(O)c2)n1` [Compound 1], in data set [1], the “soluble during initial suspension and on titration and pH adjustment” value is on record as 100%. Besides, the “inhibition of hA fibril formation” value in data set [2] (Example 12, FIG. 1B, hA:compound ratio 1:0.1) was “Inhibition of hA fibril formation was observed”. Further, in data set [3], the soluble in water is given as 100%.

Consider `O=c1cc(-c2cccc(O)c2)nc2cccc(O)n12` [Compound 6], for which, in data set [3], the “solubility in words at acid pH” value is “Completely insoluble” and the “solubility in words at alkaline pH (1 M NaOH)” value is given as “Completely insoluble”.

On to `COc1ccnc(NC(=O)CC(=O)c2ccc(O)c(O)c2)c1` [Compound 9], for which the “soluble during initial suspension and on titration and pH adjustment” value in data set [1] is listed as 95%. The compound further showed a soluble in water in data set [3] of 100%.

As to `COc1ccc(-c2cc(=O)n3c(O)cccc3n2)cc1OC` [Compound 7], in data set [3], the “solubility in words at acid pH” value is “Completely insoluble” and the “solubility in words at alkaline pH (1 M NaOH)” value is reported as “Completely insoluble”.

With `O=c1cc(-c2ccc(O)cc2)nc2cccc(O)n12` [Compound 5], in data set [1] (Example 14), the “appearance after adding 1 M HCl, pH 8.9” value is on record as “slightly cloudy, some precipitation”. In addition, the “inhibition of hA fibril formation” value in data set [2] (Example 14, ratio not stated at the place) is “little inhibition”. Also, the “solubility at pH 7.4” value in data set [3] (pH 7.4) is “lack of solubility”. Besides, the “solubility below pH 10” value in data set [3] (pH 10) is recorded as “not soluble”. Further, the “solubility in words after adding 1 M NaOH again, pH 10.4” value in data set [3] (pH 10.4) is recorded as “completely soluble”. The “soluble on addition of 1 M NaOH” value in data set [3] (pH 10.6) is “approx. 70%”. Besides, in data set [3] (pH 11.3), the “solubility in words after leaving 30 min in 1M NaOH” value is on record as “completely soluble”.
